Results reported in US9156826B2, “Asymmetrical reversible neuromuscular blocking agents of ultra-short, short, or intermediate duration” (Cornell University, priority 2012, dated 2015).
“Also recorded” adds a separate entry of the source. Where two headings read alike, the source gives them in different places.

What was measured:
[1] = test system: twitch responses of the extensor digitorum of the foot (peroneal nerve stimulation); assay: Spontaneous recovery versus reversal of neuromuscular blockade by cysteine in monkeys; type: in vivo, rhesus monkey (Macaca mulatta); details: for Reversibility (Cysteine): Table 1, reversal of the blockade by cysteine; for Total Duration (Spontaneous Recovery): injection to 95% twitch height
Method: (§1) Selected NMBA compounds were tested as described in PCT/US2010/000796 application by an inventor herein, published as WO2010/107488, which is incorporated by reference, see pages 66-78. Dose-response curves for twitch blockade by test compounds were generated as described. […] Successive doses were separated by at least three estimated half lives beyond complete recovery of the previous dose to TOF of 110-120%, which is normal for these monkeys. Only the first one or two doses yielding 5 to 99% blockade were included from any single experiment for computation of dose-response data. Comparative studies of spontaneous recovery versus antagonism/reversal were done at least 3 estimated half-lives following dose-response studies. ED50 and ED95 were computed from the regression of log dose vs. the logit of percentage blockade of twitch.
(§2) On the day of each study, monkeys received ketamine (7-10 mg/kg i.m.) followed by tracheal intubation under topical anesthesia with 4% lidocaine. Ventilation was controlled at 10 mL/kg and 20 breaths/min with isoflurane (1.0-2.0%) and N2O/O2 (2:1 mixture). Ringers lactate was administered at ˜10 ml kg^−1 h^−1. Arterial pressure was monitored from a femoral, superficial tibial, or radial (22 gauge) cannula. Heart rate was measured by tachograph from the arterial pulse wave. Core temperature was kept at 36.5-38.0° C. by warming blankets. Electrocardiogram and pulse oximetry were monitored continuously.
(§3) Needle electrodes (25 gauge) transmitting square-wave pulses of 0.2 msec duration at supramaximal voltage which were generated by a Grass S-88 stimulator (Grass Instruments, Quincy, Mass.) were placed at the peroneal nerve at the knee to elicit twitch responses of the extensor digitorum of the foot at 0.15 Hz. A small slip (10-20%) of the tendon was dissected free under sterile technique and tied to a Grass FT 10 force transducer (Grass Instruments, Quincy, Mass.) at a baseline tension of 50 gm. Train-of four stimulation (TOF, 2 Hz for 2 sec) was interposed at appropriate points, especially 1-2 min prior to NMBA dosing and following recovery of twitch to 95% of baseline, where TOF was subsequently evaluated every 1-2 min.
Comparative studies of spontaneous recovery versus antagonism/reversal were done at least 3 estimated half-lives following dose-response studies.

[2] = test system: twitch responses of the extensor digitorum of the foot (peroneal nerve stimulation); assay: Neuromuscular blocking potency and duration: twitch blockade dose-response in anesthetized rhesus monkeys; type: in vivo, rhesus monkey (Macaca mulatta); details: for ED95: Macaca mulatta; for Duration (min ± SD): at the actual dose administered, injection to recovery of twitch to 95% of control; for Blockade (%) / Onset / Total Duration: Table 3, dose 0.064 ± 0.010 (gantacurium) or 0.060 ± 0.012 mg/kg (CW1759-50)
Method: as §1
Experiments were approved by the Institutional Animal Care and Use Committee of Weill Medical College of Cornell University (New York, N.Y.) and of Albany Medical College (Albany, N.Y.), where the studies were conducted. A colony of 10 adult male monkeys (Macaca mulatta) weighing 8-18 kg was studied at ˜6 week intervals. Animals were housed and cared for in accordance with the Guide for Care and Use of Laboratory Animals (National Research Council, Washington, D.C.). They were fed a standard Old World monkey diet, enriched with fruits and vegetables, and other dietary novelties and were followed throughout the study to verify normal health by physical examination, body weight, and clinical laboratory studies (Complete Blood Count, Blood Urea Nitrogen and creatinine, and liver function tests).
as §2, §3
(§4) Recordings of circulatory and neuromuscular data were made on a Grass 7B polygraph (Grass Instruments). A baseline period of 15-20 min was allowed for stabilization of recordings prior to dosing.^2
Dose-response curves for twitch blockade by gantacurium, CW 002, CW 011, cisatracurium, CW002-Cys, NB 938-69, NB 1064-81, NB 802-17 (CW 001), NB 832-65, and NB 1163-79, structures of which are all shown above, were generated as follows. […] Successive doses were separated by at least three estimated half lives beyond complete recovery of the previous dose to TOF of 110-120%, which is normal for these monkeys. Only the first one or two doses yielding 5 to 99% blockade were included from any single experiment for computation of dose-response data.
ED 50 and ED 95 were computed from the regression of log dose vs. the logit of percentage blockade of twitch.

[3] = test system: blood pressure and heart rate; assay: Circulatory effects (arterial pressure, heart rate) during neuromuscular blockade in rhesus monkeys; type: in vivo, rhesus monkey (Macaca mulatta); details: rhesus monkey
Method: Thus, the undesired side effect of tachycardia is not induced by a compound of the invention at a dose effective to induce NMB.
as §2, §4

[4] = Properties of cysteine solutions (solubility, natural pH); type: physicochemical; details: cysteine in its base form
Method: To accomplish the reversal of a neuromuscular blockade generated by one of these agents, cysteine is administered by intravenous injection. However, the natural pH of cysteine hydrochloride solutions at concentrations of 50 mg/ml or more in aqueous solution (e.g., 0.9% saline) is very low, ranging from about pH 0.8 to about pH 1.0. Moreover, cysteine is not soluble at concentrations greater than 50 mg/ml in its base form, but higher concentrations of cysteine are more conveniently administered for reversal of neuromuscular blockades. For example, bolus administration of volumes greater than 50 ml over a time period of 5-10 sec is generally not convenient in an operating room. Therefore, to be administered to patients, cysteine solutions have been developed that have higher concentrations and higher pH values as described herein.

[5] = Table 1, calculated dose for 95% block of twitch, monkeys, read-out: ED 95

COc1cc2c(cc1OC)[C@@H](Cc1cc(OC)c(OC)c(OC)c1)[N@+](C)(CCCOC(=O)/C(Cl)=C/C(=O)OCCC[N+]1(Cc3cc(OC)c(OC)c(OC)c3)CCCC1)CC2 [Compound 1326-69]
Reversibility (Cysteine) [1]: Yes
ED95 [2, 5]: 0.11 mg/kg
Duration (min ± SD) ([2]; Table 1): 4.5 ± 1.8 min

COc1cc2c(cc1OC)[C@@H](Cc1cc(OC)c(OC)c(OC)c1)[N@+](C)(CCCOC(=O)/C(Cl)=C/C(=O)OCCC[N+]1(Cc3cc(OC)c(OC)c(OC)c3)CCCCC1)CC2 [Compound 1343-05]
Reversibility (Cysteine) [1]: Yes
ED95 [2]: 0.07 mg/kg
Duration (min ± SD) ([2]; Table 1): 6.7 ± 2.1 min

COc1ccc(C[C@@H]2c3cc(OC)c(OC)cc3CC[N@@+]2(C)CCCOC(=O)/C=C\C(=O)OCCC[N+]2(Cc3cc(OC)c(OC)c(OC)c3)CCCC2)cc1OC [Compound 1343-13]
Reversibility (Cysteine) [1]: Yes
ED95 [2]: 0.06 mg/kg
Duration (min ± SD) ([2]; Table 1): 8.8 ± 2.6 min

COc1ccc(C[C@@H]2c3cc(OC)c(OC)cc3CC[N@@+]2(C)CCCOC(=O)/C=C\C(=O)OCCC[N+]2(Cc3ccc(OC)c(OC)c3)CCCC2)cc1OC [Compound 1390-80]
Reversibility (Cysteine) [1]: Yes
ED95 [2, 5]: 0.07 mg/kg
Duration (min ± SD) ([2]; Table 1): 9.0 ± 2.1 min

COc1ccc(C[C@@H]2c3cc(OC)c(OC)cc3CC[N@@+]2(C)CCCOC(=O)/C=C\C(=O)OCCC[N+]2(Cc3ccc(OC)c(OC)c3OC)CCCC2)cc1OC [Compound 1449-35]
Reversibility (Cysteine) [1]: Yes
ED95 [2]: 0.126 mg/kg
Duration (min ± SD) ([2]; Table 1): 5 min

COc1ccc(C[N+]2(CCCOC(=O)/C=C\C(=O)OCCC[N@+]3(C)CCc4cc(OC)c(OC)cc4[C@H]3Cc3ccc(OC)c(OC)c3)CCCC2)cc1 [Compound 1521-28]
Reversibility (Cysteine) [1]: Yes
ED95 [2]: 0.335 mg/kg
Duration (min ± SD) ([2]; Table 1): 6.5 min

COc1ccc(C[C@@H]2c3cc(OC)c(OC)cc3CC[N@@+]2(C)CCCOC(=O)/C(Cl)=C/C(=O)OCCC[N+]2(Cc3ccc(OC)c(OC)c3)CCOCC2)cc1OC [Compound 1521-74]
Reversibility (Cysteine) [1]: Yes
ED95 [2]: 0.16 mg/kg
Duration (min ± SD) ([2]; Table 1): 4.3 ± 1.1 min

COc1ccc(C[C@@H]2c3cc(OC)c(OC)cc3CC[N@@+]2(C)CCCOC(=O)/C=C\C(=O)OCCC[N+]2(Cc3ccc4c(c3)OCCO4)CCOCC2)cc1OC [Compound 1521-78]
Reversibility (Cysteine) [1]: Yes
ED95 [2]: 0.05 mg/kg
Duration (min ± SD) ([2]; Table 1): 12.1 ± 2.1 min

COc1ccc(C[N+]2(CCCOC(=O)/C=C(\Cl)C(=O)OCCC[N@+]3(C)CCc4cc(OC)c(OC)cc4[C@H]3Cc3cc(OC)c(OC)c(OC)c3)CCOCC2)cc1OC [Compound 1566-01]
Reversibility (Cysteine) [1]: Yes
ED95 [2]: 0.61 mg/kg
Duration (min ± SD) ([2]; Table 1): 8 min

COc1ccc(C[C@@H]2c3cc(OC)c(OC)cc3CC[N@@+]2(C)CCCOC(=O)/C(Cl)=C/C(=O)OCCC[N+]2(Cc3cc(OC)c(OC)c(OC)c3)CCOCC2)cc1OC [Compound 1566-22]
Reversibility (Cysteine) [1]: Yes
ED95 [2]: 0.19 mg/kg
Duration (min ± SD) ([2]; Table 1): 3.7 ± 0.3 min

COc1cc2c(cc1OC)[C@@H](Cc1cc(OC)c(OC)c(OC)c1)[N@+](C)(CCCOC(=O)/C(Cl)=C/C(=O)OCCC[N+]1(Cc3ccc4c(c3)OCCO4)CCOCC1)CC2 [Compound 1598-46]
Reversibility (Cysteine) [1]: Yes
ED95 [2]: 0.1 mg/kg
Duration (min ± SD) ([2]; Table 1): 6.8 ± 2.3 min

COc1ccc(C[C@@H]2c3cc(OC)c(OC)cc3CC[N@@+]2(C)CCCOC(=O)/C=C\C(=O)OCCC[N+]2(Cc3ccc(OC)cc3)CCOCC2)cc1 [Compound 1625-05]
Reversibility (Cysteine) [1]: Yes
ED95 [2]: 0.09 mg/kg
Duration (min ± SD) ([2]; Table 1): 6 min

COc1ccc(C[C@@H]2c3cc(OC)c(OC)cc3CC[N@@+]2(C)CCCOC(=O)/C=C\C(=O)OCCC[N+]2(Cc3ccc(OC)c(OC)c3)CCOCC2)cc1 [Compound 1726-01]
effect on blood pressure ([3]; 0.06 mg/kg dose, FIG. 2): no apparent effect on blood pressure
effect on heart rate / tachycardia ([3]; 0.06 mg/kg, dose effective to induce NMB): no apparent effect on heart rate
spontaneous reversal of blockade time (FIG. 4) ([1]; 100% block): more than 10 minutes
cysteine-induced reversal time (FIG. 4) ([1]; 100% block, 30 mg/kg L-cysteine hydrochloride): ≤ 2 min
5-95% Interval with L-Cysteine ([1]; L-cysteine 30 mg/kg at +1 min following bolus 0.2 mg/kg (4x ED95), Point A): 1.9 ± 0.2
5-95% Interval with L-Cysteine ([1]; L-cysteine 30 mg/kg at +1 min following discontinuation of infusion (30-120 mins), Point B): 2.1 ± 0.2
Reversibility (Cysteine) [1]: Yes
5-95% Interval (Spontaneous Recovery) ([1]; bolus 0.2 mg/kg (4x ED95), Point A): 6.2 ± 0.2
Total Duration (Spontaneous Recovery) ([1]; bolus 0.2 mg/kg (4x ED95)): 11.9 ± 0.3 min
5-95% Interval (Spontaneous Recovery) ([1]; bolus 0.05-0.06 mg/kg (ED99)): 5.2 ± 0.2
Total Duration (Spontaneous Recovery) ([1]; bolus 0.05-0.06 mg/kg (ED99)): 7.3 ± 0.3 min
dependence of recovery (5-95% twitch recovery interval) on dosage or duration of infusion (FIG. 5) ([1]; bolus or infusion, spontaneous or L-cysteine induced recovery, listed as 1759-50): not significantly effected by the previous duration of infusion; also recorded: unaffected by dosage or duration of infusion
5-95% Interval (Spontaneous Recovery) ([1]; continuous infusions, 30-120 mins, Point B): 5.2 ± 0.3
spontaneous reversal time (FIG. 3) ([1]; dose of 4x the ED95 dose): about 11 minutes
time to termination of blockade following L-cysteine administration (FIG. 3) ([1]; dose of 4x the ED95 dose, 30 mg/kg L-cysteine hydrochloride): about two
duration of neuromuscular blockade (spontaneous recovery, FIG. 2) ([2]; 0.06 mg/kg dose, rhesus monkey): about six
ED95 [2, 5]: 0.05 mg/kg
Duration (min ± SD) ([2]; Table 1): 7.6 ± 2.4 min
Blockade (%) [2]: 99.3 ± 0.2%
Onset [2]: 94.0 ± 8.7 s
Total Duration [2]: 8.2 ± 1.5 min
potency compared with gantacurium (% blockade, time to onset, total duration of effect) ([2]; Table 3 comparison): comparable to gantacurium in potency
ED95 (statistical analysis of dose-response study, FIG. 1) ([2]; rhesus monkeys): 0.054 ± 0.0022 mg/kg

COc1ccc(C[C@@H]2c3cc(OC)c(OC)cc3CC[N@@+]2(C)CCCOC(=O)/C=C\C(=O)OCCC[N+]2(Cc3cc(OC)c(OC)c(OC)c3)CCOCC2)cc1 [Compound 1759-58]
Reversibility (Cysteine) [1]: Yes
ED95 [2]: 0.064 mg/kg
Duration (min ± SD) ([2]; Table 1): 6 to 8 min

COc1ccc2c(c1)CC[N@@+](C)(CCCOC(=O)/C=C\C(=O)OCCC[N+]1(Cc3ccc(OC)c(OC)c3)CCOCC1)[C@@H]2Cc1ccc(OC)c(OC)c1 [Compound 1759-85]
Reversibility (Cysteine) [1]: Yes
ED95 [2, 5]: 0.22 mg/kg
Duration (min ± SD) ([2]; Table 1): 5.4 ± 1.3 min

COc1cc2c(cc1OC)[C@H](c1cc(OC)c(OC)c(OC)c1)[N@@+](C)(CCCOC(=O)/C=C(\Cl)C(=O)OCCC[N@+]1(C)CCc3cc(OC)c(OC)cc3[C@H]1Cc1cc(OC)c(OC)c(OC)c1)CC2 [Gantacurium, gantacurium, reference compound]
Blockade (%) [2]: 99.2 ± 0.5%
Onset [2]: 97.1 ± 11.7 s
Total Duration [2]: 7.4 ± 1.9 min
ED95 in a control study ([2]; rhesus monkeys, control study for comparison): 0.063 ± 0.0021 mg·kg

N[C@@H](CS)C(=O)O [cysteine]
solubility [4]: ≤ 50 mg/mL
